From patent US9119395B2, “Active substance mixtures comprising OPP and amines, microbicidal agents” (LANXESS Deutschland GmbH, priority 2005, dated 2015)

How the values were obtained:
[1] = tested on: microorganism mixture: Pseudomonas aeruginosa, Pseudomonas fluorescens, Pseudomonas oleovorans, Pseudomonas rubescens, Pseudomonas stutzeri, Alcalaigenes …; experiment: Microbiological preservation stress test in a chalk suspension; format: cell-based; conditions: 60° C. for 3 days before test, weekly contamination
From the text: The preserving action of an active compound mixture according to the invention was examined in a chalk suspension using a preservation stress test.
The microbiological stress test examines the susceptibility of water-based systems to microbial attack and the action of preservatives. To this end, the preservatives are incorporated in defined concentrations into the water-based systems. To simulate praxis-like conditions, depending on the medium to be examined, a storage at elevated temperatures (for example 7 days at 40° C., 3 days at 60° C. or the like) may be carried out prior to the actual preservation test to evaluate the preservatives to be examined under conditions which are as realistic as possible. After the preparations have been carried out, contamination with microorganisms of a defined species is carried out at weekly intervals over a test period of at most 6 weeks. 2-3 and 7 days after each contamination, by counting the number of germs, it is established whether a complete kill or at least inhibition of propagation of the bacteria introduced has been achieved, compared to the unpreserved control samples.
The contamination source used for the examination in the stress test was the following microorganism mixture:
Very good activity is achieved when, even after 6 contamination cycles, the reserved samples effect a kill of the microorganisms introduced.
Using a chalk suspension (proportion of solids 70-75%), a preservation stress test according to the above scheme was carried out. After incorporation of the respective biocidally active compounds at the stated concentrations, the samples were exposed to thermal stress at 60° C. for 3 days. The samples pre-treated in this manner were then used for carrying out the microbiological stress test.

Pseudomonas fluorescens = experiment: Minimum inhibitory concentration and synergism (Kull synergistic index) of OPP/AMINE 1 combinations; format: cell-based; conditions: compound applied on its own (QA/QB)
From the text: The observed synergism of the mixtures according to the invention can be determined by the following mathematical approach (cf. F. C. Kull, P. C. Elisman, H. D. Sylwestrowicz and P. K. Mayer, Appl. Microbiol, 9, 538 (1961):
[formula] where • Qa=the amount of component A in the active compound mixture required to achieve the desired effect, i.e. no microbial growth, • QA=the amount of component A which, applied on its own, suppresses the growth of the microorganisms, • Qb=the amount of component B in the active compound mixture which suppresses the growth of the microorganisms, • Qb=the amount of component B which, applied on its own, suppresses the growth of the microorganisms.
A synergistic index of SI<1, in accordance with the above formula, indicates a synergistic effect for the active compound mixture.
The minimum inhibitory concentration of the active compound combinations listed in Table 1 were examined using the test germ Pseudomonas fluorescens

Oc1ccccc1-c1ccccc1 [OPP, o-phenylphenol]
Week 1 ([1]; 150 ppm): ok
Week 2 ([1]; 150 ppm): spoilt
Week 3 ([1]; 150 ppm): spoilt
Week 4 ([1]; 150 ppm): spoilt
Week 5 ([1]; 150 ppm): spoilt
Week 6 ([1]; 150 ppm): spoilt
Week 1 ([1]; 200 ppm): ok
Week 2 ([1]; 200 ppm): ok
Week 3 ([1]; 200 ppm): ok
Week 4 ([1]; 200 ppm): ok
Week 5 ([1]; 200 ppm): spoilt
Week 6 ([1]; 200 ppm): spoilt
Amount of pure active compounds required to suppress growth (Pseudomonas fluorescens): 500 (=QA) ppm

CCCCCCCCCCCCN(CCCN)CCCN [“AMINE 1”, bis(3-aminopropyl)dodecylamine]
Week 1 ([1]; 80 ppm): ok
Week 2 ([1]; 80 ppm): spoilt
Week 3 ([1]; 80 ppm): spoilt
Week 4 ([1]; 80 ppm): spoilt
Week 5 ([1]; 80 ppm): spoilt
Week 6 ([1]; 80 ppm): spoilt
Week 1 ([1]; 160 ppm): ok
Week 2 ([1]; 160 ppm): ok
Week 3 ([1]; 160 ppm): ok
Week 4 ([1]; 160 ppm): spoilt
Week 5 ([1]; 160 ppm): spoilt
Week 6 ([1]; 160 ppm): spoilt
Amount of pure active compounds required to suppress growth (Pseudomonas fluorescens): 50 (=QB) ppm
